The source of these data is PubChem BioAssay (NCI).

Each structure is given as a SMILES string. Where “and” joins values, the source holds several entries; their conditions need not be identical. Equal entries are not always repeated.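 In this assay, cells in 96-well plates receive the compound at five concentrations for 48 hours. Endpoints are linearly interpolated between the surrounding concentrations. At the GI50, growth is halved. TGI is the concentration that stops growth completely.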 A value given as a limit tells only on which side of the number the result lay.

Experiment in all cases: NCI anticancer screen, dose series, 48 h
Assay [1] concerns SK-MEL-2 melanoma.
Assay [2] has as its system HCC-2998 colon.
The test system of assay [3] is NCI-H522 lung.
The test system of assay [4] is A549 NSCLC.
Assay [5] relates to IGROV1 ovarian.
Assay [6] concerns CCRF-CEM leukemia.
In assay [7] the test system is SW-620 colon.
In assay [8] the test system is NCI-H23 lung.
Assay [9] relates to HCT-15 colon.
For assay [10], the system named is LOX IMVI melanoma.

For `Cc1nn(-c2ccc(S(=O)(=O)[O-])cc2)c([O-])c1N=[N+](C)c1ccc(-c2ccc(N=Nc3ccc4c(S(=O)(=O)[O-])cc(S(=O)(=O)[O-])c(N)c4c3[O-])c([O-])c2)cc1[O-].[Cu+2].[Cu+2].[Na+]`, the GI50 in assay [1], in assay [2], in assay [3], in assay [4], in [5] and in [6] was above 100 µM each time. Moreover, the GI50 in [7], in assay [8] and in [9] was above 100 µM each time. The TGI in assay [1], in assay [2], in [3], in assay [4], in assay [5] and in assay [6] was above 100 µM in each case. The TGI in assay [7], in assay [8] and in assay [9] was above 100 µM in each case.
With `Oc1ccccc1/C=N/Nc1ccc2ccccc2n1`, the GI50 in assay [1] was 30 µM; in assay [2] it was 6.59 µM; in assay [3] it was 2.36 µM; in [4], 5.33 µM; in assay [5], 3.18 µM; in assay [6] it was 0.862 µM. Further, the values for the GI50 in assay [7], in assay [8] and in assay [9] were 4.64 µM, 3.36 µM and 0.838 µM, respectively. The TGI in [1] was above 100 µM; in assay [2], above 100 µM; in assay [3], 9.41 µM; in assay [4], above 100 µM; in assay [5], 12.3 µM; in [6], above 100 µM. Further, the TGI in assay [7], in assay [8] and in assay [9] was above 100 µM throughout.
For the compound `CCOC(=O)CC1=Nc2ccccc2SC1`, the TGI in assay [1], in [2], in assay [10], in [3], in assay [4] and in [5] was above 100 µM in each case. The TGI in assay [7], in assay [8] and in [9] was above 100 µM each time.
In the case of `N/C(CC(=O)Nc1cc(C(F)(F)F)ccc1Cl)=N\O`, the TGI in assay [1], in assay [10], in assay [3], in assay [4], in [5] and in [7] was above 100 µM throughout. Moreover, the TGI in assay [8] and in [9] was above 100 µM throughout.
Regarding `CCCCCCCCCCCCCCCC(=O)NCC(COP(=O)([O-])OCC[N+](C)(C)C)OCC` (configuration not stated), the TGI in assay [2] worked out at 3.1 µM; in assay [10], 34.4 µM; in assay [4] it was 45.7 µM; in [5] it was 16 µM; in assay [7], 27.4 µM; in assay [8] it was 39.3 µM. Also, in [9], the TGI was 19.3 µM.
With `FC(F)(F)c1nc(-c2ccccc2Cl)[nH]c1C(F)(F)F`, the TGI in [1] was 1.4 µM; in assay [10], 1.23 µM; in [4], 3.06 µM; in assay [5], 8.97 µM; in assay [6] it was 1.6 µM; in assay [7], 6.63 µM. In addition, the results for the TGI in assay [8] and in assay [9] were 2.03 µM and 3.52 µM, respectively.
As to `CC(C)(C)OC(=O)n1cc(CNC(=S)Nc2ccccc2)c2ccccc21`, the GI50 in assay [1] is 36.3 µM; in [10], 11.1 µM; in [3] it was above 100 µM; in assay [4], 10.6 µM; in [5], 27.6 µM; in assay [7], 13.1 µM. Also, the results for the GI50 in assay [8] and in assay [9] were 10.7 µM and 10.9 µM, respectively. For the same compound, the TGI is above 100 µM in [1]; 23 µM in [10]; above 100 µM in assay [3]; 33.1 µM in assay [4]; above 100 µM in assay [5]; 26.2 µM in assay [7]. Further, the TGI stood at 24.4 µM in assay [8] and 22.9 µM in [9].
For the compound `C1COCCN1.C1COCCN1.N.N.[Cl-].[Pt+2]`, the GI50 in assay [1], in assay [2], in assay [10], in assay [3], in assay [4] and in assay [5] was above 100 µM in each case. For the same compound, the GI50 in assay [7], in assay [8] and in assay [9] was above 100 µM in each case. Besides, the TGI in [1], in assay [2], in assay [10], in assay [3], in [4] and in [5] was above 100 µM each time. Besides, the TGI in [7], in [8] and in [9] was above 100 µM in each case.
For `CCc1c2c(nc3cc4c(cc13)OCO4)-c1cc3c(c(=O)n1C2)COC(=O)[C@]3(O)CC`, the GI50 in [2] was 0.0443 µM and 0.361 µM; in assay [10], 0.00197 µM; in assay [5] it was 0.33 µM and 0.39 µM; in assay [8] it was 0.00263 µM; in assay [9] it was 0.182 µM and 0.137 µM. Also, the TGI was above 100 µM in assay [2]; 0.122 µM and 0.52 µM in assay [10]; 2.08 µM in assay [4]; above 100 µM in assay [5]; above 100 µM in assay [7]; 1.08 µM in assay [8]. The compound further registered a TGI in [9] above 100 µM.
As for `CCOC(=O)C1(CC)CCCCC(=O)N1` (configuration not stated), the TGI in assay [2], in assay [10], in assay [4], in assay [5], in [6] and in assay [7] was above 100 µM throughout. The TGI in assay [8] and in [9] was above 100 µM throughout.
As to `COc1ccc(/C=C/C=C(/C#N)C(N)=S)cc1`, the GI50 in [1] was 25.2 µM; in assay [10], 16 µM; in [3] it was 26.1 µM; in assay [4], 33.1 µM; in assay [5] it was 28.3 µM; in assay [7], 21.3 µM. Moreover, the figures for the GI50 in assay [8] and in assay [9] were 28.7 µM and 25.4 µM, respectively. Further, the TGI in assay [1] is 67.7 µM; in [10], 37.4 µM; in [3] it was 58.3 µM; in [4], above 100 µM; in assay [5], above 100 µM; in [7] it was 61.2 µM. Also, the values for the TGI in [8] and in assay [9] were above 100 µM and 82.8 µM, respectively.
For the compound `O=c1[nH]c2ccccc2cc1C(Cl)=C(Cl)Cl`, the TGI in assay [1], in [2], in assay [10], in assay [3], in assay [4] and in [5] was above 100 µM each time. The TGI in assay [6], in assay [7] and in [8] was above 100 µM in each case.
In the case of `N#Cc1c(-c2cccs2)c2c(=S)[nH]c(=S)[nH]c2[nH]c1=S`, the GI50 is 32.9 µM in assay [1]; 18.2 µM in assay [10]; 29.1 µM in assay [3]; 28.9 µM in assay [4]; 71.3 µM in assay [5]; 32.8 µM in assay [7]. For the same compound, in assay [9], the GI50 was 37 µM. The TGI in assay [1] is 80.9 µM; in assay [10], 39.8 µM; in assay [3], 79 µM; in assay [4] it was above 100 µM; in assay [5] it was above 100 µM; in [7], 81 µM. The same compound showed a TGI in [9] above 100 µM.
For `O=C(/C=C/c1ccc(Cl)cc1)c1ccc(Cl)cc1Cl`, the GI50 was 9.55 µM in assay [1]; 1.15 µM in [10]; 8.15 µM in assay [3]; 8.63 µM in assay [4]; 0.987 µM in [5]; 1.88 µM in assay [7]. In addition, the GI50 in assay [8] was 4.55 µM; in [9] it was 6.4 µM. For the same compound, the TGI in assay [1] was 18.9 µM; in [10], 5.62 µM; in assay [3], 16.8 µM; in [4], 17.5 µM; in [5], 14.6 µM; in assay [7], 6.31 µM. The TGI in [8] was 12.4 µM; in [9] it was 15.3 µM.
On to `CCOc1ccc(S(=O)(=O)/N=C2\C=C(SCC(=O)O)C(=O)c3ccccc32)cc1`, for which the GI50 in assay [1] is 2.62 µM; in assay [2] it was 14.8 µM; in [10], 2.31 µM; in assay [3] it was 2.53 µM; in assay [4], 12.6 µM; in [5] it was 2.14 µM. In addition, the GI50 in assay [7] is 3.31 µM; in [8], 2.81 µM; in assay [9], 4.77 µM. In addition, the TGI came out at 5.8 µM in assay [1]; 28.2 µM in assay [2]; 10.2 µM in [10]; 6.63 µM in assay [3]; 34.9 µM in assay [4]; 4.34 µM in assay [5]. Also, the TGI in assay [7] came out at 11.1 µM; in [8] it was 14.2 µM; in assay [9], 17.2 µM.
For `CCC(C)C1NC(=O)c2nc(oc2-c2ccccc2)-c2csc(n2)-c2csc(n2)-c2nc(oc2C)-c2coc(n2)CNC(=O)C(C(C)CC)NC1=O` (configuration not stated), the GI50 is 0.0543 µM in assay [2], 0.0263 µM in assay [5], 0.04 µM in assay [8] and 0.0361 µM in assay [9]. The TGI was 0.249 µM in assay [2]; 0.122 µM in [5]; 0.0324 µM in assay [7]; 0.155 µM in [8]; 0.18 µM in assay [9].
With `CC(CO)(CO)N=Cc1cc(I)cc(I)c1O`, the TGI is 27.4 µM in assay [1]; 24.2 µM in assay [10]; 49.4 µM in [3]; above 100 µM in assay [4]; 33.3 µM in assay [5]; 44.5 µM in [6]. The figures for the TGI in assay [7], in assay [8] and in [9] were 53 µM, 58.7 µM and 34.8 µM, respectively.
Take `O=C(CCN1CCN(c2cnc3ccccc3n2)CC1)c1csc2ccccc12`: the GI50 in assay [1] is above 100 µM; in [2], above 100 µM; in [10], 26 µM; in assay [3], 18.4 µM; in [6], 19.2 µM; in assay [7], 20.9 µM. Besides, the GI50 in assay [8] was above 100 µM; in assay [9], 62.6 µM. For the same compound, the TGI in assay [1] was above 100 µM; in assay [2] it was above 100 µM; in assay [10] it was 70.1 µM; in [3] it was 42.8 µM; in assay [6], above 100 µM; in assay [7], 45.4 µM. Besides, the TGI in assay [8] and in [9] was above 100 µM throughout.
`O=[N+]([O-])[C@@H]1C2C=CC(C2)[C@H]1Cl` (some centres not stated): the TGI in assay [1], in assay [10], in [3], in assay [4], in [5] and in [6] was above 100 µM each time. Moreover, the TGI in assay [7], in [8] and in assay [9] was above 100 µM throughout.
For `C=CCSC[C@H](NC(=O)COc1ccccc1)C(=O)NC(C(=O)OCc1ccc([N+](=O)[O-])cc1)=C(C)C`, the TGI in assay [1], in assay [2], in [10], in assay [3], in [4] and in assay [5] was above 100 µM in each case. For the same compound, the TGI in assay [6] and in assay [9] was above 100 µM each time.
With `O=C(c1ccc2ccccc2c1)c1c(C(F)(F)F)n([O-])c2cc(Cl)c(Cl)cc2[n+]1=O`, the GI50 in [1] was 1.64 µM; in assay [2] it was 1.48 µM; in assay [10], 1.17 µM; in assay [3] it was 1.49 µM; in assay [4], 1.63 µM; in [5] it was 1.3 µM. The GI50 in assay [6] was 2.41 µM; in [7], 1.63 µM; in [9], 1.56 µM. For the same compound, the TGI in [1] turned out to be 2.99 µM; in assay [2], 2.8 µM; in assay [10], 2.4 µM; in assay [3] it was 2.81 µM; in assay [4], 2.98 µM; in assay [5], 2.56 µM. Also, the figures for the TGI in [6], in [7] and in [9] were 4.78 µM, 2.98 µM and 2.97 µM, respectively.
In the case of `CCOc1ccc(NC(=O)CC2Sc3ccccc3NC2=O)cc1` (configuration not stated), the TGI was above 100 µM in assay [2]; above 100 µM in assay [3]; above 100 µM in assay [4]; above 100 µM in [5]; above 100 µM in assay [6]; 33.5 µM in assay [7]. The TGI in [8] and in assay [9] was above 100 µM in each case.
